Reference: ChEMBL document CHEMBL1201862, “PubChem BioAssay data set” (2004)
Structures can show the parent of a compound that is named as a salt. The source made the active and inactive calls.

Experiments:
[1] = inhibitors of intracellular T. cruzi replication, confirmation, NIH3T3 host cells, beta-gal luminescence (AID 2044); assay type: functional, cell-based;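 also: intracellular parasites grown in NIH/3T3 mouse fibroblasts as host cells; luminescent beta-galactosidase reporter signal from transgenic T. cruzi replicating inside host cells; inhibitors lower the luminescence signal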
[2] = cytotoxicity toward NIH3T3 fibroblasts, dose response, counter-screen, cell-based, ATP luminescence, mouse fibroblasts (AID 2010); assay type: functional;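 also: cells exposed to compound for about 90 hours before reading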
cells = assay type: functional
[3] = target: T1, Heat shock factor protein 1 (Mus musculus, UniProt P38532); experiment: inhibition of MG132-induced HSE-luciferase signal, confirmation, cell-based, NIH3T3, luminescence, dose retest (AID 2382); assay type: functional;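 also: NIH3T3 fibroblasts with HSF1-driven luciferase reporter stressed by proteasome inhibitor MG132; luminescence from HSF1-driven luciferase expression after 8 hours of MG132 stress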
T1 sequence (P38532 whole entry): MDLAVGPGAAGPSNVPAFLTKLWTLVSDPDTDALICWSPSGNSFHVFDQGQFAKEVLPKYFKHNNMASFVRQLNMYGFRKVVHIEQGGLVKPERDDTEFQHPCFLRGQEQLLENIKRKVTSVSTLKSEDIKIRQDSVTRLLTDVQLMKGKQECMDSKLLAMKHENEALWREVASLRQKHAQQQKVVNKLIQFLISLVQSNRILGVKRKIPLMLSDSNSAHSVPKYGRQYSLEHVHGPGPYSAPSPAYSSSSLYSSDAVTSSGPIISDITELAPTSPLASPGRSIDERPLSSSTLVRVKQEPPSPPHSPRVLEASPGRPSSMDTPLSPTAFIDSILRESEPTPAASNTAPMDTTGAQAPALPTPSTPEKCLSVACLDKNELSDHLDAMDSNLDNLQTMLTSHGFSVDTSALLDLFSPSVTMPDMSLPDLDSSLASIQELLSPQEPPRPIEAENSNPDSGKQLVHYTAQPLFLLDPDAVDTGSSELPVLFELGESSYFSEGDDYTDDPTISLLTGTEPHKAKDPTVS

Cytochrome P450 2C9 = Cytochrome P450 2C9 (Homo sapiens, UniProt P11712)
[4] = target: T2, Corticotropin-releasing factor receptor 2/Corticotropin-releasing factor-binding protein (Homo sapiens, UniProt P24387+Q13324); experiment: Dose Response confirmation of uHTS hits for small molecule antagonists of the CRF-binding protein and CRF-R2 receptor complex.; assay type: functional; details: read-out: IC50_Mean
T2 sequence (Q13324 whole entry): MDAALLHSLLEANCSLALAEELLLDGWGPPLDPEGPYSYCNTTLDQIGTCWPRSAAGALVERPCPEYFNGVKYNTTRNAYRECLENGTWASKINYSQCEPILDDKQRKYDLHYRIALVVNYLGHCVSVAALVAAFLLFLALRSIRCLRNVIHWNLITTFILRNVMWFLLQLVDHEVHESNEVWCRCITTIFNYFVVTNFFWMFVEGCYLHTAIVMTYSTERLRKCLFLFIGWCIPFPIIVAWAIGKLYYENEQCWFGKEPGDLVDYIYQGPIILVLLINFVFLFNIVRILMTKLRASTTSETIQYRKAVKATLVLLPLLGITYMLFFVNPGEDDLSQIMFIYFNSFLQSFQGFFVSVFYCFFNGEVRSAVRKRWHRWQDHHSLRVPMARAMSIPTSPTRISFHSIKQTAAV
T2 sequence (P24387 whole entry): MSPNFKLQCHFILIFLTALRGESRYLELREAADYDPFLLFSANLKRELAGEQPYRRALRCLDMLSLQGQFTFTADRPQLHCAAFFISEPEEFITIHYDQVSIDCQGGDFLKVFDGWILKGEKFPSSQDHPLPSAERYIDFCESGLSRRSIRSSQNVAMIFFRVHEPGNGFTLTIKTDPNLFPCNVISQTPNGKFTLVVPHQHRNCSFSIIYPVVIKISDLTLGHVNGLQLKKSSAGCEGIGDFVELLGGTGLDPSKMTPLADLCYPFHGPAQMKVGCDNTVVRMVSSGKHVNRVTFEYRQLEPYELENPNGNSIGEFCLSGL

[5] = target: T2, Corticotropin-releasing factor receptor 2/Corticotropin-releasing factor-binding protein; experiment: activators of CRF receptor 2 with binding protein – uHTS hits, confirmation (AID 602473); assay type: functional; details: read-out: EC50_Mean
[6] = inhibitors of firefly luciferase expression or activity, dose response, H4 neuroglioma cells, luminescence (AID 1990); assay type: functional, cell-based
[7] = Luminescence Cell-Based Dose Response HTS to Identify Inhibitors of 5'UTR Stem-Loop Driven Prion Protein mRNA Translation in H4 Neuroglioblastoma Cells. [Related pubchem assays: 1827 (Project Summary), 1813 (Primary HTS)]; assay type: functional
[8] = inhibitors of SNCA 5'UTR-driven reporter translation, confirmation, H4 neuroglioma cells, luminescence (AID 1988); assay type: functional, cell-based
Cytochrome P450 2D6 = Cytochrome P450 2D6 (Homo sapiens, UniProt P10635);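 also: CYP2D6 member of a cytochrome P450 panel assay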
[9] = target: T3, RNA-binding protein pos-1 (Caenorhabditis elegans, UniProt G5EF15); experiment: inhibitors of POS-1/mex-3 RNA binding, dose response, biochemical, fluorescence polarization (AID 1964);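 also: purified POS-1 fused to maltose binding protein made in E. coli; potency of compounds blocking POS-1 binding to fluorescent RNA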
T3 sequence (G5EF15 whole entry): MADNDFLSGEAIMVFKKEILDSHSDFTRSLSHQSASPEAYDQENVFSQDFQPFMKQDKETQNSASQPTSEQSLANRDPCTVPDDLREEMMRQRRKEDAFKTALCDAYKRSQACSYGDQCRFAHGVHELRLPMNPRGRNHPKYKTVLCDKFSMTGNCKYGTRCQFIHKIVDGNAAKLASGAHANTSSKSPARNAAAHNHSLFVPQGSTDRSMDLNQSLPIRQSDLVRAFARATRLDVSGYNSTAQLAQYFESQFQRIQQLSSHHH

[10] = target: T4, Zinc finger protein mex-5 (Caenorhabditis elegans, UniProt Q9XUB2); experiment: MEX-5/TCR-2 RNA interaction inhibitors, dose response, biochemical, C. elegans, fluorescence polarization (AID 1960)
T4 sequence (Q9XUB2 whole entry): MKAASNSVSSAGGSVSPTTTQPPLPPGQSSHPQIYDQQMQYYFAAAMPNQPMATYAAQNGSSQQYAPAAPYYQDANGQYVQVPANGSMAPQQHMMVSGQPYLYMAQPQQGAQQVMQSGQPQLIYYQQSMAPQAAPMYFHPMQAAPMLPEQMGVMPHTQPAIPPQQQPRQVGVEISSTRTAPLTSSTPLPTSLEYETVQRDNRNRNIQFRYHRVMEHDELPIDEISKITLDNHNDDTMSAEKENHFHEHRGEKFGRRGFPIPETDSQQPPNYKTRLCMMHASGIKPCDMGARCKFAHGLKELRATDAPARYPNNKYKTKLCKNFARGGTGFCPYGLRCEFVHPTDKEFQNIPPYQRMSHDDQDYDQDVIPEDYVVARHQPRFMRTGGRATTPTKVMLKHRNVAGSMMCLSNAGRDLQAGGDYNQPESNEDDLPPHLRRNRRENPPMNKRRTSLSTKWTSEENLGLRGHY

Cytochrome P450 1A2 = target: T5, Cytochrome P450 1A2 (Homo sapiens, UniProt P05177);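 also: PubChem cytochrome P450 panel assay, CYP1A2 panel member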
T5 sequence (P05177 whole entry): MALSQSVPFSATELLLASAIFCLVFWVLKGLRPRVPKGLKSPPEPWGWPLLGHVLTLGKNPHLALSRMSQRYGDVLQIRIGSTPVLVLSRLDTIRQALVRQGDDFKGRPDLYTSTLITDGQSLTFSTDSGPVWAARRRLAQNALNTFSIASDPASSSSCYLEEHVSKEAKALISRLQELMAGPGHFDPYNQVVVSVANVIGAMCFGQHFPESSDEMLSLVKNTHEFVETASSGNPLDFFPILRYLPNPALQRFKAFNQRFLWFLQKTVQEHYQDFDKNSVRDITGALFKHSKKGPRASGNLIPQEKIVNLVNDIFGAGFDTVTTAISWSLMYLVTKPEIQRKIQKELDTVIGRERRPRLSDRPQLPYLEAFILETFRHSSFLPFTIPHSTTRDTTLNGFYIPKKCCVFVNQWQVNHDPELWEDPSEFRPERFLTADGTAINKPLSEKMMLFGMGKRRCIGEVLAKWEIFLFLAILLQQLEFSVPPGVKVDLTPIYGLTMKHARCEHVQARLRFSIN

Cytochrome P450 3A4 = Cytochrome P450 3A4 (Homo sapiens, UniProt P08684);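 also: CYP3A4 tested as one member of a cytochrome P450 panel screen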
Cytochrome P450 2C19 = Cytochrome P450 2C19 (Homo sapiens, UniProt P33261); experiment: Cytochrome panel assay with activity outcomes. Panel member name: p450-cyp2c19 Compounds with AC50 equal or less than 10 uM are considered active; assay type: functional; details: read-out: AC50
Chain of Cytochrome P450 2C19 (P33261 whole entry): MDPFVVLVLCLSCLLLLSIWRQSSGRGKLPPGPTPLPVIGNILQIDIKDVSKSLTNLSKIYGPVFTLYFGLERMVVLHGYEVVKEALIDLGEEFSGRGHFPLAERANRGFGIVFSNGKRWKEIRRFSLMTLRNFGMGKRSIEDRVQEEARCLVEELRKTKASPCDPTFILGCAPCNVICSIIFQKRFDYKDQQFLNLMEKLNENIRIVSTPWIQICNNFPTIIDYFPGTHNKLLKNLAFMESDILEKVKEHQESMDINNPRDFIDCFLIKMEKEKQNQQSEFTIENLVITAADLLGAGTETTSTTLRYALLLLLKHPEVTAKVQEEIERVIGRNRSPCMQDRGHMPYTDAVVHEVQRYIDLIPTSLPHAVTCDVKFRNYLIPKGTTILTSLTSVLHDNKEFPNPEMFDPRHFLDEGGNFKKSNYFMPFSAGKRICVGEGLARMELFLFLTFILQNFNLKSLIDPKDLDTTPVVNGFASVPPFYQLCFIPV

Chain of Cytochrome P450 2C9 (P11712 whole entry): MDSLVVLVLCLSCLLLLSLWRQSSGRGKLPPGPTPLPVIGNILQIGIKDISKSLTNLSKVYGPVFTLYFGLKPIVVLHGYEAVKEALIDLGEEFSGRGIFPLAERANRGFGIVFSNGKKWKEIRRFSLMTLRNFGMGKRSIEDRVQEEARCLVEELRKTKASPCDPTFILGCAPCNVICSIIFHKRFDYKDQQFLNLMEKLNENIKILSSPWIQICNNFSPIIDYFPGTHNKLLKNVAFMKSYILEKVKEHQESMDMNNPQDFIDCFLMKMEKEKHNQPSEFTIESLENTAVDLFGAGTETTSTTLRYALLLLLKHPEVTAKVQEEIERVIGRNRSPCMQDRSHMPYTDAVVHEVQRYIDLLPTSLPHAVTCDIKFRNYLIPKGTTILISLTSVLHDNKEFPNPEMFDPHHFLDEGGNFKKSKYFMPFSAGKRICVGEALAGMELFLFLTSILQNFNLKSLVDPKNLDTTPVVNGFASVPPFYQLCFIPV
Chain of Cytochrome P450 3A4 (P08684 whole entry): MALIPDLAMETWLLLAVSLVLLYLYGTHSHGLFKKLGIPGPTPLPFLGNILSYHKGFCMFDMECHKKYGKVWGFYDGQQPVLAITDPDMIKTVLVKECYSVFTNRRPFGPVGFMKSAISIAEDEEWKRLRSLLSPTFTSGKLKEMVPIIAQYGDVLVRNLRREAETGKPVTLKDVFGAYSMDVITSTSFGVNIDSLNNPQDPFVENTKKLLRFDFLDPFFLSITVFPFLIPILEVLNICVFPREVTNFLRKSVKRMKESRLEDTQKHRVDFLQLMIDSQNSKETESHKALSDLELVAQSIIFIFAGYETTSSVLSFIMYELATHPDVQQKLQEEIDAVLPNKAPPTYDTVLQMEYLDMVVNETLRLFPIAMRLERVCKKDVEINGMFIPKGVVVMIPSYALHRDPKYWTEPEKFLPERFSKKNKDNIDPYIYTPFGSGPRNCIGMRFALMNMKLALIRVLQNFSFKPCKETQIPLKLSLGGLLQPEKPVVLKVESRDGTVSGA
Chain of Cytochrome P450 2D6 (P10635 whole entry, the tested form may be a part): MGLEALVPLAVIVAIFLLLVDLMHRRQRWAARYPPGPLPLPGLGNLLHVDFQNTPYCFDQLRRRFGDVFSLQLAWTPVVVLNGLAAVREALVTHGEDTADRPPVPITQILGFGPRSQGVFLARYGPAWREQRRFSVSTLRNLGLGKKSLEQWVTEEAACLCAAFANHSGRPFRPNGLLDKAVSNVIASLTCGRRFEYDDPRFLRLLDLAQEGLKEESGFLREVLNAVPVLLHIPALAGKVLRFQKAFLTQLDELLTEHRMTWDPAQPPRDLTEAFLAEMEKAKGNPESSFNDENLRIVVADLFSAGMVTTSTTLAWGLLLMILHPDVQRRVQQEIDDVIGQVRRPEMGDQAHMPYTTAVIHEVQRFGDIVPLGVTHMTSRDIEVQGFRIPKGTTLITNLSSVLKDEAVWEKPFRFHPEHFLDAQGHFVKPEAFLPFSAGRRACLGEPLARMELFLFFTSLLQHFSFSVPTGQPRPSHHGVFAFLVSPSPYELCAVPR

SMILES: C/C(=N\Nc1cccc2cccnc12)c1ccccn1
- EC50 [1]: 2.51 µM (active)
- EC50 [2]: > 60 µM (not active)
- IC50 (cells): 13.8 µM (active)

SMILES: Cc1nc2c(sc3nc(N4CCOCC4)c4c(c32)CC(C)(C)OC4)c(-c2ccc(Cl)cc2)c1C(=O)O
- EC50 [3]: > 195 µM (not active)

SMILES: O=C(Nc1ccc(Cl)c(C(F)(F)F)c1)C1CCCN(S(=O)(=O)c2c[nH]cn2)C1 (stereo not given)
- AC50 (Cytochrome P450 2C9): 0.501 µM (inconclusive)

SMILES: N#CC1=C(N)Oc2cc(N)ccc2C1c1ccccc1Cl (stereo not given)
- EC50 [3]: > 195 µM (not active)

SMILES: COC(=O)C1CC(Cl)CN1c1ncc(C(F)(F)F)cc1Cl (stereo not given)
- IC50 [4]: > 47.1 µM (inactive)
- EC50 [5]: > 53 µM (inactive)

SMILES: COc1ccc2c3c1O[C@H]1C[C@@H](O)C=C[C@@]31CCN(C)C2 [GALANTAMINE HYDROBROMIDE]
- EC50 [6]: > 120 µM (not active)
- EC50 [7]: > 120 µM (not active)
- EC50 [8]: 11.1 µM (active)

SMILES: O=C(CCl)NC(Cc1ccccc1)c1ccccc1 (stereo not given)
- EC50 [3]: 17.1 µM (active)

SMILES: O=C(Nc1cccc2ncccc12)c1ccc(-c2ccc(Br)cc2)o1
- AC50 (Cytochrome P450 2D6): 12.6 µM (inconclusive)
- AC50 (Cytochrome P450 2C9): 0.282 µM (inconclusive)

SMILES: COc1ccc(S(=O)(=O)N2CCCCCC2)cc1NC(=O)Cc1ccccc1F
- EC50 [6]: 76.1 µM (active)
- EC50 [7]: > 120 µM (not active)
- EC50 [8]: > 120 µM (not active)

SMILES: CCN1C(=O)NC(=O)/C(=C\c2cn(CC(=O)O)c3ccccc23)C1=O
- EC50 [9]: > 300 µM (not active)
- EC50 [10]: > 300 µM (not active)

SMILES: CSc1ccc(CN(C)Cc2cc(=O)oc3c(C)c(C)ccc23)cc1
- EC50 [3]: > 195 µM (not active)

SMILES: NS(=O)(=O)c1ccc(/N=N\c2ncccc2O)cc1
- AC50 (Cytochrome P450 1A2): 2 µM (inconclusive)
- AC50 (Cytochrome P450 3A4): 3.98 µM (inconclusive)
- AC50 (Cytochrome P450 2C9): 6.31 µM (inconclusive)

SMILES: CC(C)CC(=O)Nc1c2c(nn1-c1ccc(F)cc1)C[S+]([O-])C2 (stereo not given)
- EC50 [3]: > 195 µM (not active)

SMILES: Cc1ccc(O)c(-c2cc(C(F)(F)C(F)F)nc(-c3ccccc3)n2)c1
- AC50 (Cytochrome P450 2C19): 14.1 µM (inconclusive)
- AC50 (Cytochrome P450 3A4): 8.91 µM (inconclusive)
- AC50 (Cytochrome P450 2C9): 7.08 µM (inconclusive)

SMILES: COC(=O)c1nn(-c2ccccc2)c(-c2ccccc2)c1C(=O)c1ccccc1
- EC50 [6]: > 120 µM (not active)
- EC50 [7]: > 120 µM (not active)
- EC50 [8]: > 120 µM (not active)
- AC50 (Cytochrome P450 3A4): 14.1 µM (inconclusive)
- AC50 (Cytochrome P450 2C9): 15.8 µM (inconclusive)

SMILES: Cc1ccccc1C1=N/C(=C/c2cccs2)C(=O)O1
- EC50 [9]: > 300 µM (not active)
- EC50 [10]: 39.1 µM (active)

SMILES: Fc1ccc([C@H]2CCNC[C@H]2COc2ccc3c(c2)OCO3)cc1
- AC50 (Cytochrome P450 2C9): 2 µM (inconclusive)
